The record followed here is PubChem BioAssay (NCI).

Some test systems named below: IGROV1 ovarian; HL-60(TB) leukemia; MALME-3M melanoma; NCI-H460 lung; SNB-75 CNS; SF-295 CNS; HCC-2998 colon; PC-3 prostate; NCI-H522 lung; UO-31 renal.
What all share (test): NCI-60 cell line screen, 48 h

Molecules are shown by their SMILES.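 Method: 48-hour compound exposure of cells in 96-well plates, five concentrations, linear interpolation of endpoints. Definition used: TGI = concentration required for complete inhibition of growth.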

Take `O=C(Nc1cccc2c1[nH]c1c(-c3ccccc3)nccc12)c1ccccc1[N+](=O)[O-]`: the TGI in the assay with IGROV1 ovarian is greater than 100 µM; with HL-60(TB) leukemia it was greater than 100 µM; with MALME-3M melanoma, greater than 100 µM; in the assay on NCI-H460 lung it was 78.1 µM; in the assay on SNB-75 CNS, greater than 100 µM; with SF-295 CNS it was 88 µM. Moreover, in the assay on HCC-2998 colon, the TGI was greater than 100 µM.

In the case of `COc1ccc(C2CC3(c4ccccc4)ON=C(c4ccccc4)N3c3ccccc3S2)cc1` (centres undefined), the TGI in the assay with IGROV1 ovarian, with PC-3 prostate, with MALME-3M melanoma, in the assay with NCI-H522 lung, with NCI-H460 lung and in the assay on UO-31 renal was greater than 100 µM each time. Further, the TGI in the assay with SNB-75 CNS, with SF-295 CNS and with HCC-2998 colon was greater than 100 µM in each case.

Take `CN1CCC2(CC1)C(=NC1CCCCC1)NC(=S)N2c1ccccc1`: the TGI in the assay with IGROV1 ovarian, in the assay on HL-60(TB) leukemia, in the assay with MALME-3M melanoma, in the assay with NCI-H460 lung, with UO-31 renal and in the assay with SNB-75 CNS was greater than 100 µM throughout. The TGI with SF-295 CNS and with HCC-2998 colon was greater than 100 µM in each case.

With `COc1ccccc1/C=C1\NC(=S)N(/C=C2\C(=O)Oc3ccccc3C2=O)C1=O`, the TGI in the assay with IGROV1 ovarian was greater than 100 µM; in the assay on HL-60(TB) leukemia, greater than 100 µM; in the assay with PC-3 prostate, greater than 100 µM; in the assay with NCI-H522 lung, greater than 100 µM; with NCI-H460 lung it was greater than 100 µM; in the assay with UO-31 renal it was 82.9 µM. The TGI in the assay on SNB-75 CNS, in the assay with SF-295 CNS and with HCC-2998 colon was greater than 100 µM in each case.

With `C1CC[C@H]2SSC3CCCC[C@H]3SSC2C1` (some centres undefined), the TGI with IGROV1 ovarian, in the assay on HL-60(TB) leukemia, with PC-3 prostate, in the assay on NCI-H522 lung, with NCI-H460 lung and in the assay on UO-31 renal was greater than 100 µM throughout. Further, the TGI in the assay on SNB-75 CNS, in the assay on SF-295 CNS and in the assay on HCC-2998 colon was greater than 100 µM each time.

For `C=CCOC(=O)C1=C(CCC[C@@H](C)O[Si](C)(C)C(C)(C)C)N=C(N)N2[C@H](CCO)CC[C@@H]12`, the TGI with PC-3 prostate came to 20.8 µM; in the assay with MALME-3M melanoma, 34.9 µM; with NCI-H522 lung, 25.2 µM; in the assay on NCI-H460 lung it was 31.5 µM; in the assay on UO-31 renal, 29.6 µM; with SNB-75 CNS, 32.5 µM. Moreover, the TGI was 25.2 µM with SF-295 CNS and 35.5 µM in the assay with HCC-2998 colon.

For the compound `CCCCCC/C=C1\CCC(CN2CCOCC2)C1=O` (centres undefined), the TGI in the assay with IGROV1 ovarian was 36.6 µM; with HL-60(TB) leukemia, 15.7 µM; with MALME-3M melanoma, 30.6 µM; with NCI-H522 lung, 19.4 µM; in the assay with NCI-H460 lung, greater than 66 µM; in the assay on UO-31 renal, 27.5 µM. Besides, the TGI in the assay with SNB-75 CNS was 42.3 µM; with SF-295 CNS, 39.3 µM; with HCC-2998 colon it was 35.3 µM.

For `COc1cccc(NC(=O)C(=O)C(C(=O)c2ccccc2F)C2OC(=O)c3ccccc32)c1` (centres undefined), the TGI in the assay with IGROV1 ovarian was greater than 100 µM; in the assay on HL-60(TB) leukemia, 54.1 µM; with NCI-H522 lung, 40.7 µM; in the assay with NCI-H460 lung it was greater than 100 µM; with UO-31 renal it was greater than 100 µM; with SNB-75 CNS, 70.9 µM. Also, the TGI is greater than 100 µM in the assay on SF-295 CNS and 39.2 µM in the assay with HCC-2998 colon.

On to `CC(C)(CCCCC(C)(C)[N+](C)(C)C)[N+](C)(C)C`, for which the TGI in the assay with IGROV1 ovarian, in the assay on HL-60(TB) leukemia, in the assay on PC-3 prostate, in the assay on NCI-H522 lung, in the assay with NCI-H460 lung and in the assay with UO-31 renal was greater than 100 µM throughout. Also, the TGI in the assay with SNB-75 CNS and with HCC-2998 colon was greater than 100 µM each time.

For the compound `Fc1ccc(-c2sc(-c3cccs3)cc2Cc2cccs2)cc1`, the TGI in the assay on IGROV1 ovarian, in the assay on HL-60(TB) leukemia, in the assay on MALME-3M melanoma, in the assay with NCI-H522 lung, in the assay on NCI-H460 lung and with UO-31 renal was greater than 100 µM in each case. Moreover, the TGI with SNB-75 CNS, in the assay with SF-295 CNS and in the assay with HCC-2998 colon was greater than 100 µM each time.

As for `Brc1ccc2c(c1)-c1nc3nc4c(cc3cc1CC2)CCc1ccc(Br)cc1-4`, the TGI in the assay on IGROV1 ovarian, with PC-3 prostate, in the assay on MALME-3M melanoma, in the assay with NCI-H522 lung, in the assay with NCI-H460 lung and with UO-31 renal was greater than 100 µM throughout. Moreover, the TGI in the assay on SNB-75 CNS, in the assay with SF-295 CNS and in the assay on HCC-2998 colon was greater than 100 µM throughout.

For `COC(=O)C1=C(C(=O)OC)SC2(S1)C(C(=O)OC)=C(C(=O)OC)Sc1c2ssc1=Nc1ccc(Cl)cc1`, the TGI in the assay with IGROV1 ovarian was found to be 2.48 µM; with HL-60(TB) leukemia, 6.74 µM; in the assay on PC-3 prostate it was 1.71 µM; with NCI-H460 lung, 1.37 µM; with UO-31 renal it was 2.01 µM; in the assay with SNB-75 CNS, 2.3 µM. The results for the TGI with SF-295 CNS and with HCC-2998 colon were 5.34 µM and 1.02 µM, respectively.

As for `Cc1nnc(N)nc1/C=C/c1c(O)ccc2ccccc12`, the TGI in the assay on IGROV1 ovarian amounted to 32.2 µM; in the assay with HL-60(TB) leukemia, 71.4 µM; in the assay with PC-3 prostate, 64.1 µM; in the assay with NCI-H460 lung, 71.2 µM; in the assay on UO-31 renal, 84.6 µM; in the assay on SF-295 CNS, 56.9 µM. This compound registered a TGI in the assay on HCC-2998 colon of 45.2 µM.

Regarding `O=C1C(Cl)N(c2cccc([N+](=O)[O-])c2)C1c1c[nH]c2ccccc12` (centres undefined), the TGI was 69.8 µM in the assay with IGROV1 ovarian; greater than 100 µM with HL-60(TB) leukemia; 14.1 µM with MALME-3M melanoma; 48.7 µM in the assay on NCI-H522 lung; 35.4 µM in the assay with NCI-H460 lung; 47.9 µM with UO-31 renal. Further, the TGI in the assay on SNB-75 CNS worked out at 47.2 µM; in the assay with SF-295 CNS, 35.1 µM.

For `CSc1nc2c(ncn2C2OCC(O)C(O)C2O)c(=O)n1C` (centres undefined), the TGI with IGROV1 ovarian, with HL-60(TB) leukemia, with MALME-3M melanoma, in the assay on NCI-H522 lung, in the assay with NCI-H460 lung and in the assay with UO-31 renal was greater than 100 µM throughout. Also, the TGI in the assay on SNB-75 CNS, in the assay on SF-295 CNS and in the assay on HCC-2998 colon was greater than 100 µM throughout.

Consider `COC(=O)C(C/C=C(\C)c1ccc(Cl)cc1)C(C)=O` (centres undefined), for which the TGI with IGROV1 ovarian is greater than 100 µM; in the assay with HL-60(TB) leukemia, 38.3 µM; with MALME-3M melanoma, greater than 100 µM; with NCI-H522 lung, 92.3 µM; in the assay on NCI-H460 lung, greater than 100 µM; in the assay with UO-31 renal, 85.4 µM. Also, the TGI is greater than 94.6 µM with SNB-75 CNS, greater than 100 µM with SF-295 CNS and greater than 100 µM in the assay with HCC-2998 colon.
